Results published in patent publication US7816074B2, “α4 β2 δGABA-A receptors as a strategy for PMS and alcoholism” (priority 2003, dated 2010).
Read-outs that look alike come from different tables or passages of the source.

Tests used:
[1] = system: GABAA receptors of acutely isolated CA1 hippocampal pyramidal cells; conditions: ethanol 1-3 mM, but not higher (>10 mM); after progesterone withdrawal (ref. 67); cited from earlier work
[2] = biological target: α1β1 receptors / oocytes injected with α1+β1+δ (Rattus norvegicus, UniProt P15431+P62813); conditions: 1 mM alcohol
Text: Plasmids with inserts encoding GABAA receptor subunit sequence for rat α1 (62), rat β2 (83), rat α2 (62), rat α5 (62), mouse α4 (37), mouse β3 (82), rat β1 (83), rat γ2S (63), human δ (12), and human ε (11) were produced by subcloning each separately into an appropriate cloning vehicle such as PCDM8, pCDNA3.1 or pGHEMHE vectors (Invitrogen, Carlsbad Calif.) using a T7 promoter and standard subcloning techniques (59). Plasmids were linearized with an appropriate restriction enzyme at a site 3′ to the insert and cRNAs were synthesized using T3 or T7 polymerase (mMessage mMachine, Ambion, Tex.). The size of the cRNA was verified and RNA was quantified by ethidium bromide staining after electrophoresis on 1% agarose gels.
The preparation, injection, and maintenance of oocytes were carried out as described previously (78). […]
Voltage-clamp recording was carried out 1 to 3 days after injection of cRNAs. […] Oocytes were voltage-clamped at −70 mV and macroscopic currents were recorded with a two-electrode voltage-clamp using a Warner Instruments OC-725 amplifier as described previously (79). Currents were recorded on a chart recorder or by using Axograph on a Macintosh computer. […]

[3] = system: GABAA receptors of acutely isolated CA1 hippocampal pyramidal cells; test: Whole cell patch clamp, ethanol or THIP effect on GABA-gated current; assay type: cell-based, rat; conditions: for potentiation of GABA-gated currents: progesterone-withdrawal model; for potentiation of GABA-gated responses: after progesterone withdrawal
Procedure: Pyramidal neurons were acutely dissociated from CA1 hippocampus and GABA-gated Cl^− currents analyzed using whole cell patch clamp procedures as previously described (67). Briefly, tissue was digested at 32° C. for 50-60 minutes under 100% O2 in PIPES-buffered saline containing (in mM): NaCl 120, KCl 5, CaCl2 1, MgCl2 1, D-glucose 25, PIPES 20 and trypsin (type XI, sigma) 0.8 mg/ml, pH 7.0. After 1 hour of enzyme-free incubation at room temperature, tissue was dissociated by trituration in 1 ml of 20 mM HEPES-buffered DMEM which was replaced by recording medium after transfer to the recording chamber. GABA-gated currents were recorded at room temperature (20-25° C.) at a holding potential of −50 mV in a bath containing (in mM): NaCl 120, CsCl 5, CaCl2 2, MgCl2 1, TEA Cl 15, 4-aminopyridine 5, HEPES 10 and glucose 25, pH 7.4, 320 mOsm/kg H2O. The pipette solution contained (in mM): N-methyl-D-glucamine chloride 120, Cs4BAPTA 5 and Mg-ATP 5. The ATP regeneration system Tris phosphocreatine (20 mM) and creatine kinase were added to minimize GABA rundown. All drugs were obtained from Sigma Chemical Co, (St. Louis, Mo.), except for BAPTA (Calbiochem, San, Diego, Calif.).
Peak currents were calculated for all drug concentrations as relative to the current gated by 10 μM GABA alone using the equation: ([peak current: GABA+ETOH]−[peak current: GABA alone])/[peak current: GABA alone]. Currents were recorded using an Axopatch 1D amplifier (Axon Instruments) filtered at 2 kHz (four-pole Bessel filter) and detected at 500 Hz (pClamp 5.1).
Following progesterone withdrawal or control conditions, pyramidal cells were acutely isolated from CA1 hippocampus as described (65,64). GABA-gated Cl^− currents were recorded using whole cell patch clamp techniques at a holding potential of −50 mV.

[4] = biological target: T1, α4β2δ GABAA receptors (UniProt O14764+P63138+Q9D6F4); test: Two-electrode voltage-clamp of recombinant GABAA receptors in oocytes; assay type: cell-based; conditions: 1 mM ethanol
T1 construct: expressed in transfected cells
Procedure: Oocytes were injected with receptor subunit cRNAs (2 to 20 ng) in the following ratios: α1:β1:γ2S, α1:β2:γ2S and α1:β1:ε1, 1:1:1; α2:β1:γ2S, α5:β1:γ2S, α4:β1:γ2S, and α4:β2:γ2S, 10:1:1; α4:β1:δ, α4:β2:δ, α4:β3δ, 10:1:10; α1:β2:δ, 1:1:10 or 1:0.5:3; α1:β1:δ, 1:1:10 or 1:0.5:3; α2:β1:δ and α2:β2:δ, 1:0.5:3; α1:β1, α1:β2, α2:β1, α2:β2, β2:γ2S and α4δ, 1:1, α4:β1, α4:β2, α4:β3, 10:1, β2δ, 1:10.
Voltage-clamp recording was carried out 1 to 3 days after injection of cRNAs. Electrodes were filled with 3 M KCl and had resistances of 0.4-4 MΩ. Oocytes were positioned in a small Perspex chamber and continuously superfused with a saline solution (100 mM NaCl, 2 mM KCl, 1.8 mM CaCl2, 10 mM HEPES, pH 7.5). Agonists and modulators were both applied in the same saline solution. Oocytes were voltage-clamped at −70 mV and macroscopic currents were recorded with a two-electrode voltage-clamp using a Warner Instruments OC-725 amplifier as described previously (79). Currents were recorded on a chart recorder or by using Axograph on a Macintosh computer.

[5] = system: female Long Evans rats; test: Elevated plus maze; conditions: ethanol 0.5 g/kg
Procedure: Adult, female Long Evans rats (200-250 grams at the time of testing) were used in the following example. Animals were housed in pairs under controlled conditions (14:10 light:dark cycle, 24° C.) with free access to food and water. Progesterone (P, Sigma, crystalline)-filled capsules of silicone tubing (Nalgene Co. 1/16″×⅛″ o.d., 10 mm/100 g body weight) were implanted subcutaneously in the lower back after induction of halothane anesthesia (3-6% in O2, 1 liter/minutes) in the experimental animals. […] Capsules were removed under halothane anesthesia after a 21-day P administration period, and animals tested 24 hours after the last injection (“P withdrawal”). Control animals were tested on the day of diestrus, also referred to as diestrus controls, a low hormone state, as determined by vaginal lavage. […] All animals were tested between 0730 and 1100 hour. Euthanasia was either by decapitation in the electrophysiology experiments or CO2 inhalation for the behavioral experiments following the indicated protocols.
This device consists of four 10×50 cm arms at 90° angles, with two arms enclosed by 40 cm walls, and two open arms, all elevated 50 cm above the floor. The open arms are also partially bordered by small rails extending to the proximal half of the arm, and the floor of the maze is marked with grid lines every 25 cm. […] Both number of entries and duration of time spent in the open and closed arms were tabulated, as were the total arm entries, a measure of general activity level. To be considered an open arm entry, the animal had to cross the line of the open platform with all four paws. An increase in open arm entries or time spent in the open arm versus the total time is considered to be a measure of decreased anxiety, (25).

[6] = biological target: T1, α4β2δ GABAA receptors; conditions: oocytes (ref. 67), cited from earlier work

T1 sequence (Q9D6F4 36-552): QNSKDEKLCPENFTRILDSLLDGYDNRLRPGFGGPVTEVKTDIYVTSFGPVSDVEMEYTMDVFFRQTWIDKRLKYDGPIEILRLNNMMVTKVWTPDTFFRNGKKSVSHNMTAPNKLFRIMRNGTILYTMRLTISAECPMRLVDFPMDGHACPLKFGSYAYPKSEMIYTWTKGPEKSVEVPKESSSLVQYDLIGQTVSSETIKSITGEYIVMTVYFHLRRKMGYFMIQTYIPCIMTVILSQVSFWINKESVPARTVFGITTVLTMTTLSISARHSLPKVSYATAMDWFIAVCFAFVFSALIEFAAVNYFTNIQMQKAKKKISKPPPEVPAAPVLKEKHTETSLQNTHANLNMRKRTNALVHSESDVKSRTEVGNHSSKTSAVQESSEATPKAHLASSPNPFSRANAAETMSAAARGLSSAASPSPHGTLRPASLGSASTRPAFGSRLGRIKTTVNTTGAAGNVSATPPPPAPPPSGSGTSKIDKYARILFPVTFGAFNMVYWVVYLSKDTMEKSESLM
T1 sequence (P63138 25-474 limits assumed): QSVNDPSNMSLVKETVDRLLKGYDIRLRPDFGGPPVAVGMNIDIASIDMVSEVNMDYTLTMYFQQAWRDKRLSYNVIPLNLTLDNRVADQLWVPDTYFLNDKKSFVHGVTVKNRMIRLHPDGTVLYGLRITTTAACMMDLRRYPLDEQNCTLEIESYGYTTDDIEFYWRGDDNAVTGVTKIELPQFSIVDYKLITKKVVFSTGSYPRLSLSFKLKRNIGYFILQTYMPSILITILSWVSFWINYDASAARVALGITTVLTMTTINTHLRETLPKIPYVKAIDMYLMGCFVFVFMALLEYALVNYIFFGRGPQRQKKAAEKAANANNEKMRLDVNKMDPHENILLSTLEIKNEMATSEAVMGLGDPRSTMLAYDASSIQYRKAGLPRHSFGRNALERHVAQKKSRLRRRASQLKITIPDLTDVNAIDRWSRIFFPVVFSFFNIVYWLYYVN
T1 sequence (O14764 17-452 limits assumed): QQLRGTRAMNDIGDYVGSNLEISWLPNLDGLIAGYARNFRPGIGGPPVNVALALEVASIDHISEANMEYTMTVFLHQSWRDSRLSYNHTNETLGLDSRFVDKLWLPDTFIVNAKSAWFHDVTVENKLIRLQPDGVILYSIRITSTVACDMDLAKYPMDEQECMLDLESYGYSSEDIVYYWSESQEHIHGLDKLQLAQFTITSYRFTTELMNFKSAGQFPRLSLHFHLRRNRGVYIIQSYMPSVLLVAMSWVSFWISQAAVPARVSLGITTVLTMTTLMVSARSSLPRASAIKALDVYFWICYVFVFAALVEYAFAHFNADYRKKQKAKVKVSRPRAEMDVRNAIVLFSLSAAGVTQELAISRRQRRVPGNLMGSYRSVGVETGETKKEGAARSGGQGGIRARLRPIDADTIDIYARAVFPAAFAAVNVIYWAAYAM
α1β1 receptors / oocytes injected with α1+β1+δ, sequence (P62813 28-455): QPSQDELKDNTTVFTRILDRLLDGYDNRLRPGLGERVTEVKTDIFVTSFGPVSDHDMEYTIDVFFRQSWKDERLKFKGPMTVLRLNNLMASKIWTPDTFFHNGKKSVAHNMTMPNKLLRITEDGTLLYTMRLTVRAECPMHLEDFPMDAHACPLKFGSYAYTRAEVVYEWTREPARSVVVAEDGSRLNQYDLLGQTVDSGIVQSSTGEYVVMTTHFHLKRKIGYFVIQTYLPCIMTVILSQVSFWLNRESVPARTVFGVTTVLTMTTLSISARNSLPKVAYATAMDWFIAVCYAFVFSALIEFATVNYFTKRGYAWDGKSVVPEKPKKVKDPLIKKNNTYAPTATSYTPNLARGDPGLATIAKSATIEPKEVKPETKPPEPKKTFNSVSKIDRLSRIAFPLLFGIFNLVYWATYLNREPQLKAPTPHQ
α1β1 receptors / oocytes injected with α1+β1+δ, sequence (P15431 26-474): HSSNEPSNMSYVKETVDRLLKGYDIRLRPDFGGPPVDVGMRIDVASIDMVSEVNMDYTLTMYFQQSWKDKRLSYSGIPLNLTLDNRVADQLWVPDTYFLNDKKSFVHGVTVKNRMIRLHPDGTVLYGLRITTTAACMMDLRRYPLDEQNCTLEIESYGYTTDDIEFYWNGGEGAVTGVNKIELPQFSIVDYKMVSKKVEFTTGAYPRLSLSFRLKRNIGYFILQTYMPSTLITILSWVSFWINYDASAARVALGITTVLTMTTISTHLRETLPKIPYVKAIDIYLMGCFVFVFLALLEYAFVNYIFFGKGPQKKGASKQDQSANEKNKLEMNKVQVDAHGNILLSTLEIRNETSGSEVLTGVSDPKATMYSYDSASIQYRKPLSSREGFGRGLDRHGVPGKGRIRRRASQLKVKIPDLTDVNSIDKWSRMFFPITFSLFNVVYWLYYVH

For `CCO` [ethanol], which “effect on GABA-gated current of isolated hippocampal neurons” value [1] is on record?
Its value is “potentiated”.

And the “effect on GABA responses” value [2]?
Its value is “not altered”.

And the “GABA-modulatory effects of alcohol” value ([3]; 1 mM alcohol, progesterone withdrawal with α4 expression suppressed)?
The value was “prevented”.

And the “potentiation of GABA-gated currents” value ([3]; 1 mM alcohol)?
Its value is 81±21%.

And the “potentiation of GABA-gated responses” value ([3]; 3 mM ethanol with 10 μM GABA)?
Its value is 75±10%.

What about the “potentiation of GABA-gated currents” value ([3]; 10 mM and greater alcohol) of the same compound?
Its value is “not as effective”.

What about the “potentiation of GABA-gated responses” value ([3]; 20 mM ethanol) of the same compound?
Its value is “ineffective”.

And the “effect on GABA responses” value ([3]; 3 or 20 mM ethanol, cells from control animals)?
The value was “neither concentration produced an effect”.

What about the “increase of GABA-gated currents at α4β2δ receptors” value [4] of the same compound?
Its value is 45±11%.

What about the “% open arm entries, P withdrawn greater than control animals after ethanol” value [5] of the same compound?
The value was 50%.

What about the “time in the open arm, P withdrawn relative to control animals after ethanol” value [5] of the same compound?
Its value is 3 fold.

What about the “increase of % of open arm entries compared to vehicle” value ([5]; P withdrawn animals) of the same compound?
Its value is 7 fold.

What about the “increase of time in the open arm compared to vehicle” value ([5]; P withdrawn animals) of the same compound?
Its value is “more than 20 fold”.

And the “effect on open arm time and % open arm entries” value ([5]; control animals)?
Its value is “no significant effect”.

And the “locomotor activity (total number of arm entries)” value ([5]; either group)?
Its value is “not significantly altered”.

And the “effect on α4β2δ GABAA receptor” value ([6]; ethanol 1-3 mM)?
The value was “potentiated”.

And the “effect on α4β2δ GABAA receptor” value ([6]; ethanol >10 mM)?
Its value is “ineffective”.
